Test results reported in US7091202B2, “4-arylspirocycloalkyl-2-aminopyrimidine carboxamide KCNQ potassium channel modulators” (Bristol-Myers Squibb Company, priority 2004, dated 2006).
pEC50: −log10 of the molar value.

biological target: T1, hQ23 (HEK-293 cell line stably transfected with one of the members of the KCNQ family) (Homo sapiens, UniProt O43525+O43526); assay: Thallium flux assay for KCNQ channel blockers (FLIPR, BTC dye); type: cell-based; details: Table 2; thallium flux, HEK-293
T1 construct: expressed in transfected cells; host or cells: HEK-293, stably transfected
Procedure, shortened: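 HEK-293 cells stably expressing a KCNQ member, loaded with BTC-AM (2 μM) in chloride-free buffer, pH 7.3; compounds added at 1% DMSO, then Tl2SO4 stimulus on FLIPR (488/540 nm, 60 s). Minimal active concentration set at ≥4 SD above negative control; IC50 from 10-point 1:3 series, single-site logistic fit versus the positive-control blocker.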

T1 sequence (O43526 whole entry): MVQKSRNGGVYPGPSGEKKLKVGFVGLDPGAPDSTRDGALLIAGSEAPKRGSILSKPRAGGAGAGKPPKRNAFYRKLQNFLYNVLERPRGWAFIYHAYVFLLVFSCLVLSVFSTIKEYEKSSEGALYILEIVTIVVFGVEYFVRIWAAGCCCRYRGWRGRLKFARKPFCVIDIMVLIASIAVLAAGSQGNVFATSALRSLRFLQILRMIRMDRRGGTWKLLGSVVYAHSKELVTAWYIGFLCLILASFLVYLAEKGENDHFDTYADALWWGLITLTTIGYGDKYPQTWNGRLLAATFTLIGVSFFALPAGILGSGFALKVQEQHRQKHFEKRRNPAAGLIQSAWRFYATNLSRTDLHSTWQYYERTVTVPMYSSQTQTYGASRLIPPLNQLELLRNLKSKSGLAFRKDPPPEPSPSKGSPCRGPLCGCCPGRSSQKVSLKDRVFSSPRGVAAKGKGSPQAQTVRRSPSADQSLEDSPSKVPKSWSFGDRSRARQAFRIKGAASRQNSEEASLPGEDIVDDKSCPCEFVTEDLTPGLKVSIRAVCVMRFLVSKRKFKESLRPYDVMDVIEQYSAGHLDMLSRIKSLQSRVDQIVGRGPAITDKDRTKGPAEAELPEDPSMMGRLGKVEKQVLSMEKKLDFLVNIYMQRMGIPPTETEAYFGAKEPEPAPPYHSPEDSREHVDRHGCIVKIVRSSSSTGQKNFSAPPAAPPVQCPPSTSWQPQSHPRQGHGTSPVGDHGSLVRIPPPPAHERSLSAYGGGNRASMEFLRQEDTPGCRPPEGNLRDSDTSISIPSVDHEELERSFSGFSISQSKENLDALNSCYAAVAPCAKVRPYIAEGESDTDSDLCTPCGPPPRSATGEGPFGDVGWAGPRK
T1 sequence (O43525 whole entry): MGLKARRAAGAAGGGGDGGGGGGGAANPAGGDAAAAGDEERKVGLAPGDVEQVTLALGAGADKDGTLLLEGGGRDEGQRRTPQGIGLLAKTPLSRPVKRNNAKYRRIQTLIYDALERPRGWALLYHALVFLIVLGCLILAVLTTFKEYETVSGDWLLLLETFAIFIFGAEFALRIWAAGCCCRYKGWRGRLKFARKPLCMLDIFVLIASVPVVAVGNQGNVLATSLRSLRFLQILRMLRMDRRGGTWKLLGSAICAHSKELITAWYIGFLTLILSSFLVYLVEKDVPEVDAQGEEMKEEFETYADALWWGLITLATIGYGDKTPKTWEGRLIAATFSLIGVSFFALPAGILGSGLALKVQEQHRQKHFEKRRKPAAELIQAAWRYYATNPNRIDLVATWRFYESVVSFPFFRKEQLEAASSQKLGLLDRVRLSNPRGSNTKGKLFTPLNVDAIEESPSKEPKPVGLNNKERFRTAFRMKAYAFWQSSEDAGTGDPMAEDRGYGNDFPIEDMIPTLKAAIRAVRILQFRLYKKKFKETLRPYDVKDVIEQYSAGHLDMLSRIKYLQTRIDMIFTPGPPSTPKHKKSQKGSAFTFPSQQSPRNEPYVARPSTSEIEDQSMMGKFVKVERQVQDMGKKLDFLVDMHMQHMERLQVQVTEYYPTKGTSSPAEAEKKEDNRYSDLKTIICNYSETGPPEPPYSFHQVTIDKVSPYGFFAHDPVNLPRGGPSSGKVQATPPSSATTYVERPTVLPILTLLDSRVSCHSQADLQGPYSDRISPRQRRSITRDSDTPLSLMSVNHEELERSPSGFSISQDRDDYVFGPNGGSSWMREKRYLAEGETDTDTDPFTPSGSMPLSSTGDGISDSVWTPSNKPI

`CC1CCC(Nc2ncc(C(=O)NCc3ccc(F)cc3F)c(C3(c4ccccc4)CC3)n2)CC1` (centres unmarked) [Example 42, 5-pyrimidinecarboxamide, N-[(2,4-difluorophenyl)methyl]-2-[(4-methylcyclohexyl)amino]-4-(1-phenylcyclopropyl)-] was tested, and the pEC50 was 6.38.

same assay, conditions: Table 3; thallium flux, HEK-293

With `CC1CCCN(c2ncc(C(=O)NCc3ccc(Cl)cc3Cl)c(C3(c4ccc(Cl)cc4)CCC3)n2)C1` (centres unmarked) [Example 63, 5-pyrimidinecarboxamide, 4-[1-(4-chlorophenyl)cyclobutyl]-N-[(2,4-dichlorophenyl)methyl]-2-(3-methyl-1-piperidinyl)-] the pEC50 was 7.85.

same assay, conditions: hQ23 cells, thallium flux

Point of comparison: `CC1CCC(Nc2ncc(C(=O)N(C)CCc3ccccc3)c(C3(c4ccc(Cl)cc4)CCCC3)n2)CC1` (centres unmarked) [Example 146, 5-pyrimidinecarboxamide, 4-[1-(4-chlorophenyl)cyclopentyl]-N-methyl-2-[(4-methylcyclohexyl)amino]-N-(2-phenylethyl)-], pEC50 6.18. Against it:
- O=C(NCc1cccc2ccccc12)c1cnc(NC2CCCC2)nc1C1(c2ccc(Cl)cc2)CCCC1 [Example 172, 5-pyrimidinecarboxamide, 4-[1-(4-chlorophenyl)cyclopentyl]-2-(cyclopentylamino)-N-(1-naphthalenylmethyl)-] — 0.25 log units higher, 6.43
- CCN(C(=O)c1cnc(N2CCC(C)CC2)nc1C1(c2ccccc2)CCCC1)C1CCCCC1 [Example 76, 5-pyrimidinecarboxamide, N-cyclohexyl-N-ethyl-2-(4-methyl-1-piperidinyl)-4-(1-phenylcyclopentyl)-] — within 0.2 log units, 6.05
- O=C(NCc1cc(F)cc(C(F)(F)F)c1)c1cnc(NC2CCCC2)nc1C1(c2ccc(Cl)cc2)CCCC1 [Example 196, 5-pyrimidinecarboxamide, 4-[1-(4-chlorophenyl)cyclopentyl]-2-(cyclopentylamino)-N-[[3-fluoro-5-(trifluoromethyl)phenyl]methyl]-] — 0.86 log units higher, 7.04
- CC1CCN(c2ncc(C(=O)NCc3ccc(Cl)c(Cl)c3)c(C3(c4ccccc4)CCCC3)n2)CC1 [Example 108, 5-pyrimidinecarboxamide, N-[(3,4-dichlorophenyl)methyl]-2-(4-methyl-1-piperidinyl)-4-(1-phenylcyclopentyl)-] — 1.25 log units higher, 7.43
- CN(C(=O)c1cnc(NC2CCCC2)nc1C1(c2ccc(F)cc2)CCCC1)C1CCCCC1 [Example 209, 5-pyrimidinecarboxamide, N-cyclohexyl-2-(cyclopentylamino)-4-[1-(4-fluorophenyl)cyclopentyl]-N-methyl-] — within 0.2 log units, 6.15
- CN(Cc1ccccc1)C(=O)c1cnc(N2CCCC2)nc1C1(c2ccccc2)CCCC1 [Example 69, 5-pyrimidinecarboxamide, N-methyl-4-(1-phenylcyclopentyl)-N-(phenylmethyl)-2-(1-pyrrolidinyl)-] — within 0.2 log units, 6.11
- CN1CCN(c2ncc(C(=O)N(C)Cc3ccccc3)c(C3(c4ccc(Cl)cc4)CCCC3)n2)CC1 [Example 139, 5-pyrimidinecarboxamide, 4-[1-(4-chlorophenyl)cyclopentyl]-N-methyl-2-(4-methyl-1-piperazinyl)-N-(phenylmethyl)-] — 0.97 log units higher, 7.15
- CC1CCN(c2ncc(C(=O)N3CCc4ccccc4C3)c(C3(c4ccccc4)CCCC3)n2)CC1 [Example 74, isoquinoline, 1,2,3,4-tetrahydro-2-[[2-(4-methyl-1-piperidinyl)-4-(1-phenylcyclopentyl)-5-pyrimidinyl]carbonyl]-] — 0.54 log units higher, 6.72
- CC1CCN(c2ncc(C(=O)N(C)CCc3ccccc3)c(C3(c4ccc(F)cc4)CCCC3)n2)CC1 [Example 222, 5-pyrimidinecarboxamide, 4-[1-(4-fluorophenyl)cyclopentyl]-N-methyl-2-(4-methyl-1-piperidinyl)-N-(2-phenylethyl)-] — 0.38 log units higher, 6.56
- O=C(NCc1cc(F)cc(C(F)(F)F)c1)c1cnc(N2CCCC2)nc1C1(c2ccccc2)CCCC1 [Example 124, 5-pyrimidinecarboxamide, N-[[3-fluoro-5-(trifluoromethyl)phenyl]methyl]-4-(1-phenylcyclopentyl)-2-(1-pyrrolidinyl)-] — 0.44 log units higher, 6.62
- CC1CCCN(c2ncc(C(=O)NCc3ccc(Cl)cc3Cl)c(C3(c4ccc(Cl)cc4)CCCC3)n2)C1 (centres unmarked) [Example 180, 5-pyrimidinecarboxamide, 4-[1-(4-chlorophenyl)cyclopentyl]-N-[(2,4-dichlorophenyl)methyl]-2-(3-methyl-1-piperidinyl)-] — 1.82 log units higher, 8.00
- CCN(Cc1ccccc1)C(=O)c1cnc(NC2CCC(C)CC2)nc1C1(c2ccccc2)CCCC1 (centres unmarked) [Example 84, 5-pyrimidinecarboxamide, N-ethyl-2-[(4-methylcyclohexyl)amino]-4-(1-phenylcyclopentyl)-N-(phenylmethyl)-] — within 0.2 log units, 6.08
- CN(CCc1ccccc1)C(=O)c1cnc(N2CCCC2)nc1C1(c2ccccc2)CCCC1 [Example 79, 5-pyrimidinecarboxamide, N-methyl-4-(1-phenylcyclopentyl)-N-(2-phenylethyl)-2-(1-pyrrolidinyl)-] — within 0.2 log units, 6.35
- CC1CCN(c2ncc(C(=O)N(C)C3CCCCC3)c(C3(c4ccc(F)cc4)CCCC3)n2)CC1 [Example 208, 5-pyrimidinecarboxamide, N-cyclohexyl-4-[1-(4-fluorophenyl)cyclopentyl]-N-methyl-2-(4-methyl-1-piperidinyl)-] — within 0.2 log units, 6.25
- CC1CCC(Nc2ncc(C(=O)NCc3cc(F)cc(C(F)(F)F)c3)c(C3(c4ccc(Cl)cc4)CCCC3)n2)CC1 (centres unmarked) [Example 190, 5-pyrimidinecarboxamide, 4-[1-(4-chlorophenyl)cyclopentyl]-N-[[3-fluoro-5-(trifluoromethyl)phenyl]methyl]-2-[(4-methylcyclohexyl)amino]-] — 0.61 log units higher, 6.79
- CC1CCC(Nc2ncc(C(=O)NCc3cc(F)cc(C(F)(F)F)c3)c(C3(c4ccccc4)CCCC3)n2)CC1 (centres unmarked) [Example 123, 5-pyrimidinecarboxamide, N-[[3-fluoro-5-(trifluoromethyl)phenyl]methyl]-2-[(4-methylcyclohexyl)amino]-4-(1-phenylcyclopentyl)-] — 1.82 log units higher, 8.00
- CCC(C)Nc1ncc(C(=O)NCc2ccc(Cl)cc2Cl)c(C2(c3ccc(Cl)cc3)CCCC2)n1 (centres unmarked) [Example 183, 5-pyrimidinecarboxamide, 4-[1-(4-chlorophenyl)cyclopentyl]-N-[(2,4-dichlorophenyl)methyl]-2-[(1-methylpropyl)amino]-] — 1.82 log units higher, 8.00
- O=C(NCc1ccc(F)cc1F)c1cnc(NC2CCCC2)nc1C1(c2ccc(Cl)cc2)CCCC1 [Example 189, 5-pyrimidinecarboxamide, 4-[1-(4-chlorophenyl)cyclopentyl]-2-(cyclopentylamino)-N-[(2,4-difluorophenyl)methyl]-] — 0.29 log units higher, 6.47
- CC(NC(=O)c1cnc(NC2CCCC2)nc1C1(c2ccc(Cl)cc2)CCCC1)c1ccc(F)cc1 (centres unmarked) [Example 201, 5-pyrimidinecarboxamide, 4-[1-(4-chlorophenyl)cyclopentyl]-2-(cyclopentylamino)-N-[1-(4-fluorophenyl)ethyl]-] — within 0.2 log units, 6.23
- CC1CCN(c2ncc(C(=O)NC(C)c3ccc(F)cc3)c(C3(c4ccc(Cl)cc4)CCCC3)n2)CC1 (centres unmarked) [Example 199, 5-pyrimidinecarboxamide, 4-[1-(4-chlorophenyl)cyclopentyl]-N-[1-(4-fluorophenyl)ethyl]-2-(4-methyl-1-piperidinyl)-] — 1.03 log units higher, 7.21
- CC1CCCN(c2ncc(C(=O)NC(C)c3cccc4ccccc34)c(C3(c4ccccc4)CCCC3)n2)C1 (centres unmarked) [Example 97, 5-pyrimidinecarboxamide, 2-(3-methyl-1-piperidinyl)-N-[1-(1-naphthalenyl)ethyl]-4-(1-phenylcyclopentyl)-] — 1.54 log units higher, 7.72
- CC1CCN(c2ncc(C(=O)NCc3ccc4c(c3)OCO4)c(C3(c4ccccc4)CCCC3)n2)CC1 [Example 93, 5-pyrimidinecarboxamide, N-(1,3-benzodioxol-5-ylmethyl)-2-(4-methyl-1-piperidinyl)-4-(1-phenylcyclopentyl)-] — 1.25 log units higher, 7.43

same assay, conditions: hQ23 cells, thallium flux assay

Point of comparison: `CC(NC(=O)c1cnc(N2CCN(C)CC2)nc1C1(c2ccc(F)cc2)CCCC1)c1ccc(F)cc1` (centres unmarked) [Example 283, 5-pyrimidinecarboxamide, 4-[1-(4-fluorophenyl)cyclopentyl]-N-[1-(4-fluorophenyl)ethyl]-2-(4-methyl-1-piperazinyl)-], pEC50 6.12. Against it:
- CN1CCN(c2ncc(C(=O)NCc3ccc(Cl)c(Cl)c3)c(C3(c4ccc(F)cc4)CCCC3)n2)CC1 [Example 254, 5-pyrimidinecarboxamide, N-[(3,4-dichlorophenyl)methyl]-4-[1-(4-fluorophenyl)cyclopentyl]-2-(4-methyl-1-piperazinyl)-] — within 0.2 log units, 6.28
- CCN(Cc1ccccc1)C(=O)c1cnc(NC2CCCC2)nc1C1(c2ccc(F)cc2)CCCC1 [Example 232, 5-pyrimidinecarboxamide, 2-(cyclopentylamino)-N-ethyl-4-[1-(4-fluorophenyl)cyclopentyl]-N-(phenylmethyl)-] — 0.22 log units higher, 6.34
- CCC(C)Nc1ncc(C(=O)NCc2ccc3c(c2)OCO3)c(C2(c3ccc(F)cc3)CCCC2)n1 (centres unmarked) [Example 238, 5-pyrimidinecarboxamide, N-(1,3-benzodioxol-5-ylmethyl)-4-[1-(4-fluorophenyl)cyclopentyl]-2-[(1-methylpropyl)amino]-] — 0.34 log units higher, 6.46
- O=C(NCc1cccc2ccccc12)c1cnc(N2CCCC2)nc1C1(c2ccc(F)cc2)CCCC1 [Example 249, 5-pyrimidinecarboxamide, 4-[1-(4-fluorophenyl)cyclopentyl]-N-(1-naphthalenylmethyl)-2-(1-pyrrolidinyl)-] — 0.44 log units higher, 6.56
- CC1CCCN(c2ncc(C(=O)NCc3ccc(Cl)c(Cl)c3)c(C3(c4ccc(F)cc4)CCCC3)n2)C1 (centres unmarked) [Example 255, 5-pyrimidinecarboxamide, N-[(3,4-dichlorophenyl)methyl]-4-[1-(4-fluorophenyl)cyclopentyl]-2-(3-methyl-1-piperidinyl)-] — 1.88 log units higher, 8.00
- O=C(NCc1ccc(Cl)c(Cl)c1)c1cnc(NC2CCCC2)nc1C1(c2ccc(F)cc2)CCCC1 [Example 258, 5-pyrimidinecarboxamide, 2-(cyclopentylamino)-N-[(3,4-dichlorophenyl)methyl]-4-[1-(4-fluorophenyl)cyclopentyl]-] — 0.92 log units higher, 7.04
